Measurements as given in paper PMC2914821 (Biochemistry, 2010).
Where two headings read alike, the source gives them in different places.

How the values were obtained:
[1] = system: ferrous Ns H-NOX; test: CO and NO binding kinetics to ferrous Ns H-NOX; set-up: species or system Nostoc sp; conditions: for kOFF: 6c-CO complex / 1st 6c-NO complex, 20 – 25 °C
[2] = target: sGC; conditions: cited from earlier work; for Kd / kOFF: sGC
[3] = system: ferric Ns H-NOX
[4] = target: ferric sGC; conditions: cited from earlier work
[5] = ferrous, 37 °C; cited from earlier work

With `[C-]#[O+]` [CO, carbon monoxide] the “rate of reaction with CO, Ns H-NOX relative to sGC” value [1] was 100 fold, the “second-order rate constant of CO binding” value ([1]; 5 µM ferrous Ns H-NOX, [CO] 25 to 166 µM, 24 °C, two separately purified samples) was 2 – 3 × 10^6 M^−1s^−1 and the “Kd for CO binding, ratio koff/kon” value ([1]; 3.6 s^-1/3.0 µM^−1s^−1) was 1.2 µM. For the same molecule, the “CO association rate constant (free linear fit)” value ([1]; 24 °C) was 2.9e+06 M⁻¹ s⁻¹, the “CO dissociation rate constant (koff) from y-axis intercept of kobs versus [CO]” value ([1]; 24 °C) was 23 s⁻¹ and the kOFF ([1]; Ns H-NOX) was 3.6 s⁻¹. For the same molecule, the Kd ([2]; 4 °C) was 260 µM and the kOFF ([2]; 4 °C) was 10.7 s⁻¹.

For `[N-]=[N+]=[N-]` [N3^−, azide], the “observed rate constant of azide binding” value [3] is given as ~ 0.015 s^−1 and the Kd [4] is given as 26000 µM.

In the case of `O=O` [O2, oxygen], the “O2 binding (comment)” value [2] is given as “No O2 binding at 1 atm, 10 °C”.

In the case of nitric oxide [NO], the “fraction of 5c NO-heme in final NO-heme complex” value ([1]; EPR, large excess (1 atm) of NO gas, wild type Ns H-NOX) is reported as ~ 40%, the “overall equilibrium affinity for NO relative to CO” value ([1]; Ns H-NOX) is reported as 4 orders of magnitude and the kOFF ([1]; Ns H-NOX) is reported as 0.05 s⁻¹. The “first order rate constant of 6c-NO to 5c-NO conversion, first phase” value ([1]; excess NO, independent of [NO]) was ~ 7 s^−1, the “first order rate constant of 6c-NO to 5c-NO conversion, second phase” value ([1]; excess NO, independent of [NO]) was 0.3 s⁻¹ and the “NO association rate constant for first 6c-NO complex” value ([1]; flow-flash, 436 and 418 nm, 24 °C) was 200 – 400 µM^−1s^−1 and ≈ 300 µM^−1s^−1. The “NO dissociation first order rate constant, minor slow phase” value ([1]; initial 6c-NO complex mixed with 0.5 mM CO and 25 mM dithionite) was 0.007 s⁻¹, the Kd ([1]; read-out: apparent Kd for first NO binding step) was roughly 0.00017 µM and the kOFF ([2]; 5c (off), 10 °C) was 0.0006 s⁻¹. For the same molecule, the Kd ([2]; 10 °C, calculated as kOFF/kON) was 4.2e-06 µM.

B1: β2(1–217): truncated sGC β2 heme domain (protein, UniProt O75343 1-217, looked up, fragment)
chain: MSGYDRMLRTLGGNLMEFIENLDALHSYLALSYQEMNAPSFRVERGADGKMFLHYYSDRSGLCHIVPGIIEAVAKDFFDIDVIMDILDMNEEVERTGKKEHVVFLIVQKAHRKMRKTKPKRLQDSQGMERDQEALQAAFLKMKEKYLNVSACPVKKSHWDVVRSIVMFGKGHLMNTFEPIYPERLWIEEKTFCNAFPFHIVFDESLQVKQARVNIQK
modifications: heme domain
In the case of B1, the rate of autooxidation [5] is given as 0.18 h⁻¹.

B2: β1(1–194): truncated sGC β1 heme domain corresponding to the H-NOX domain (protein, UniProt Q02153 1-194, looked up, fragment)
chain: MYGFVNHALELLVIRNYGPEVWEDIKKEAQLDEEGQFLVRIIYDDSKTYDLVAAASKVLNLNAGEILQMFGKMFFVFCQESGYDTILRVLGSNVREFLQNLDALHDHLATIYPGMRAPSFRCTDAEKGKGLILHYYSEREGLQDIVIGIIKTVAQQIHGTEIDMKVIQQRNEECDHTQFLIEEKESKEEDFYED
modifications: H-NOX domain
In the case of B2, the rate of autooxidation [5] is listed as 4.3 h⁻¹.
